From PubChem BioAssay (NCI)
Several values for one entry are separate records, joined by “and”; a condition that tells them apart may be missing. Equal entries are not always repeated.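 Where inhibition never reached the appropriate level, the endpoint shown equals the highest concentration tested. Otherwise, values were interpolated linearly from a five-concentration, 48-hour dose response in 96-well plates. At the GI50, growth is halved. TGI is the concentration that stops growth completely.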

What was measured:
Assay in all cases: growth of human tumour cells (NCI), 48 h
[1] = tested on: EKVX NSCLC
[2] = tested on: HCT-15 colon
[3] = tested on: HOP-62 NSCLC
[4] = tested on: HOP-92 NSCLC
[5] = tested on: HS 578T breast
[6] = tested on: HT29 colon
[7] = tested on: IGROV1 ovarian
[8] = tested on: M14 melanoma
[9] = tested on: MALME-3M melanoma
[10] = tested on: MDA-MB-435
[11] = tested on: MOLT-4 leukemia
[12] = tested on: OVCAR-3 ovarian
[13] = tested on: OVCAR-5 ovarian
[14] = tested on: SK-MEL-2 melanoma
[15] = tested on: SK-MEL-5 melanoma
[16] = tested on: SR leukemia
[17] = tested on: TK-10 renal
[18] = tested on: UO-31 renal

| Compound | TGI [1] | TGI [2] | TGI [3] | TGI [4] | TGI [5] | TGI [6] | TGI [7] | TGI [8] | GI50 [9] | TGI [9] | TGI [10] | GI50 [11] | TGI [11] | TGI [12] | TGI [13] | TGI [14] | TGI [15] | TGI [16] | TGI [17] | TGI [18] |
| --- | --- | --- | --- | --- | --- | --- | --- | --- | --- | --- | --- | --- | --- | --- | --- | --- | --- | --- | --- | --- |
| Cc1ccc(/C=C2/N=C(N/N=C\C(O)C(O)C(O)CO)NC2=O)cc1 (stereo unspecified) | > 100 µM | > 100 µM | > 100 µM | > 100 µM | > 100 µM | > 100 µM | > 100 µM | > 100 µM | > 100 µM and 42.1 µM | > 100 µM | > 100 µM | 46.2 µM | > 100 µM | > 100 µM | > 100 µM | > 100 µM | > 100 µM | > 100 µM | > 100 µM | > 100 µM |
| O=C(/C=C/c1ccc(OCc2ccccc2)cc1)NCc1ccc(C(=O)NCCc2c[nH]c3ccccc23)cc1 | > 100 µM | > 100 µM | 15.6 µM | 61.1 µM | 29.9 µM | > 56.6 µM | 56.1 µM | > 62 µM | – | 43.3 µM | > 100 µM | – | > 100 µM | > 100 µM | 69.4 µM | > 82.6 µM | > 58.6 µM | > 55.3 µM | > 43 µM | > 100 µM |
| Cc1cc(C)c2c(n1)S(=O)(=O)N(CCCN1CCN(c3cccc(Cl)c3)CC1)/C(=C(\O)c1ccccc1)C2=O | 82.7 µM | > 100 µM | > 100 µM | 77.4 µM | > 100 µM | > 100 µM | > 100 µM | > 100 µM | – | > 100 µM | > 100 µM | – | 44.4 µM | > 100 µM | > 100 µM | > 100 µM | 60.2 µM | 68.9 µM | 78.5 µM | 74 µM |
| COC(=O)CN(CC(O)C(NC(C)=O)C(O)C=O)C(=O)OCc1ccccc1 (stereo unspecified) | > 100 µM | > 31.6 µM | > 100 µM | > 100 µM | > 100 µM | > 100 µM | > 100 µM | > 100 µM | – | > 100 µM | > 100 µM | – | > 100 µM | > 100 µM | > 100 µM | > 100 µM | > 100 µM | > 100 µM | > 100 µM | > 100 µM |
| CCOC(=O)Nc1sc2c(c1C#N)CC(C)CC2 (stereo unspecified) | > 100 µM | > 100 µM | > 100 µM | > 100 µM | 65.9 µM | 10.9 µM | > 100 µM | 17.4 µM | – | 76.9 µM | > 100 µM | – | > 100 µM | > 100 µM | 99.1 µM | 7.87 µM | 16.6 µM | 18.4 µM | 98 µM | 46.1 µM |
| COC(=O)c1c(C)[nH]c2c1C(=O)C(=O)c1nc(C)c(C)nc1-2 | 22.6 µM | > 100 µM | 22 µM | 24.8 µM | 58.6 µM | 59.6 µM | 36.1 µM | 27 µM | – | 15.7 µM | 28.5 µM | – | 95 µM | 23.3 µM | 27.6 µM | 16.3 µM | 20 µM | 44.9 µM | 9.68 µM | 35.7 µM |
| O=C(O)CCO/N=C1/C(c2c(O)[nH]c3ccccc23)=Nc2ccccc21 | 47.9 µM | 42.3 µM | > 100 µM | 96.9 µM | > 100 µM | 79.4 µM | > 100 µM | > 100 µM | – | > 100 µM | > 100 µM | – | 77.2 µM | 43.9 µM | > 100 µM | 37.7 µM | 27.3 µM | 57.9 µM | > 100 µM | 38.3 µM |
| O/N=C1\CC2(N3CCOCC3)CCC1(c1ccccc1)CC2 | > 100 µM | > 100 µM | > 100 µM | > 100 µM | > 100 µM | > 100 µM | > 100 µM | > 100 µM | – | > 100 µM | > 100 µM | – | > 100 µM | > 100 µM | > 100 µM | > 100 µM | > 100 µM | > 100 µM | > 100 µM | > 100 µM |
| COC(=O)C1CCC(=O)N1CN(C(C)=O)c1cc(OC)ccc1OC (stereo unspecified) | > 100 µM | > 100 µM | > 100 µM | > 100 µM | > 100 µM | > 100 µM | > 100 µM | > 100 µM | – | > 100 µM | > 100 µM | – | > 100 µM | > 100 µM | > 100 µM | > 100 µM | > 100 µM | > 100 µM | > 100 µM | > 100 µM |
| CCCN(CCC)C(=S)N/N=C(/C)c1ccccc1O | > 68.9 µM | > 93.2 µM | 52.8 µM | > 76.8 µM | > 100 µM | > 100 µM | 19.3 µM | 18.8 µM | – | 28.8 µM | > 100 µM | – | > 36.9 µM | 14.9 µM | > 62.9 µM | 60.9 µM | > 41.2 µM | 8.92 µM | 66.4 µM | > 100 µM |
| CC(C)(C)OC(=O)N1CC(CCl)c2ccc(O)cc21 (stereo unspecified) | 6.73 µM | 10 µM | 12.9 µM | 6.87 µM | 7.41 µM | 11 µM | 13.3 µM | 3.21 µM | – | 3.01 µM | 4.06 µM | – | 8.13 µM | 5.83 µM | 10.2 µM | 3.2 µM | 2.77 µM | > 100 µM | 7.47 µM | 6.17 µM |
| CNC(=O)N(CCC#N)CCN(C(=O)N(C)C)c1ccccc1 | > 100 µM | > 100 µM | > 100 µM | > 100 µM | > 100 µM | > 100 µM | > 100 µM | > 100 µM | – | > 100 µM | > 100 µM | – | > 100 µM | > 100 µM | > 100 µM | > 100 µM | > 100 µM | > 100 µM | > 100 µM | > 100 µM |
| O=[N+]([O-])C1=Cc2cc(Cl)ccc2OC1c1cccc2ccccc12 (stereo unspecified) | 2.81 µM | 2.95 µM | 2.55 µM | 3 µM | 7.71 µM | 1.79 µM | 2.87 µM | 3.66 µM | – | 2.91 µM | 5.35 µM | – | 0.817 µM | 2.95 µM | 4.05 µM | 3.13 µM | 2.64 µM | 2.07 µM | 2.55 µM | 2.51 µM |
